Source: ChEMBL document CHEMBL1143698, “Conformation selectivity in the binding of diazepam and analogues to alpha1-acid glycoprotein” (Bioorg Med Chem, 2007)

Experiments:
[1] = molecular target: Alpha-1-acid glycoprotein 1 (Homo sapiens, UniProt P02763); assay: Binding affinity to human alpha1-acid glycoprotein at 30 uM
Homo sapiens [2] = organism: Homo sapiens; assay: Binding affinity to human alpha1-acid glycoprotein A variant at 60 uM
Homo sapiens [3] = organism: Homo sapiens; assay: Binding affinity to human alpha1-acid glycoprotein F1-S variant at 30 uM
Homo sapiens [4] = organism: Homo sapiens; assay: Binding affinity to human alpha1-acid glycoprotein A variant at 30 uM
Homo sapiens [5] = organism: Homo sapiens; assay: Binding affinity to human alpha1-acid glycoprotein F1-S variant at 60 uM
Albumin = Albumin (Homo sapiens, UniProt P02768); assay: Binding affinity to 30 uM human serum albumin at 30 uM
Chain of Albumin (P02768 whole entry): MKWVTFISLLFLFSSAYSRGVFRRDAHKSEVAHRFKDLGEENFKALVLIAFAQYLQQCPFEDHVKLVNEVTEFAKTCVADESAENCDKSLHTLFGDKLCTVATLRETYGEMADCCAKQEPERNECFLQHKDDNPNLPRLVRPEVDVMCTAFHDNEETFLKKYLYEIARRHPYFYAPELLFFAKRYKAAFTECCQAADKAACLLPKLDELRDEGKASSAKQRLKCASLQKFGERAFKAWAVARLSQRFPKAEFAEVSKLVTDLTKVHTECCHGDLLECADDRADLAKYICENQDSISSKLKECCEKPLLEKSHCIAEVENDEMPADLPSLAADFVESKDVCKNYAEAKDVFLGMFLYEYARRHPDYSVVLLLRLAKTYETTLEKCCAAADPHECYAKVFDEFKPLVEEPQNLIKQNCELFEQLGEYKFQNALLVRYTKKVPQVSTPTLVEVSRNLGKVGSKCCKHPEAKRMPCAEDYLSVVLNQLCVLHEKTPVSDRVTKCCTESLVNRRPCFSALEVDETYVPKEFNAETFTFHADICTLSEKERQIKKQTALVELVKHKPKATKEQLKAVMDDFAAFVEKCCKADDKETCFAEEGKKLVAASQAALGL

Chain of Alpha-1-acid glycoprotein 1 (P02763 whole entry): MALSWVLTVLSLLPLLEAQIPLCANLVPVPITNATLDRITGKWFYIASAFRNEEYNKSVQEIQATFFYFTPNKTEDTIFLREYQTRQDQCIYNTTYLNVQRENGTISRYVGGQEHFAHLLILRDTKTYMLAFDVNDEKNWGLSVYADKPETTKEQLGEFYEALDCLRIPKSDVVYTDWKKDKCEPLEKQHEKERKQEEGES

SMILES	Activity [1] [µM]	Activity (Homo sapiens [2]) [µM]	Activity (Homo sapiens [3]) [µM]	Activity (Homo sapiens [4]) [µM]	Activity (Homo sapiens [5]) [µM]	Activity (Albumin) [µM]
CN1C(=O)CN=C(c2ccccc2)c2cc(Cl)ccc21 [DIAZEPAM]	10	17	9	12	12	–
CN1C(=O)C(C)(C)N=C(c2ccccc2)c2cc(Cl)ccc21	14	–	–	–	–	17
CC1(C)N=C(c2ccccc2)c2cc(Cl)ccc2NC1=O	13	–	9	12	–	13
O=C1CN=C(c2ccccc2)c2cc(Cl)ccc2N1 [NORDAZEPAM]	9	–	–	–	–	17
